The results in this text go back to ChEMBL document CHEMBL1149525, “Synthesis and evaluation of anilinohexafluoroisopropanols as activators/modulators of LXRalpha and beta” (Bioorg Med Chem Lett, 2006).

In series [1] the target is T1, Oxysterols receptor LXR-alpha (Homo sapiens, UniProt Q13133).
T1 sequence (Q13133 whole entry): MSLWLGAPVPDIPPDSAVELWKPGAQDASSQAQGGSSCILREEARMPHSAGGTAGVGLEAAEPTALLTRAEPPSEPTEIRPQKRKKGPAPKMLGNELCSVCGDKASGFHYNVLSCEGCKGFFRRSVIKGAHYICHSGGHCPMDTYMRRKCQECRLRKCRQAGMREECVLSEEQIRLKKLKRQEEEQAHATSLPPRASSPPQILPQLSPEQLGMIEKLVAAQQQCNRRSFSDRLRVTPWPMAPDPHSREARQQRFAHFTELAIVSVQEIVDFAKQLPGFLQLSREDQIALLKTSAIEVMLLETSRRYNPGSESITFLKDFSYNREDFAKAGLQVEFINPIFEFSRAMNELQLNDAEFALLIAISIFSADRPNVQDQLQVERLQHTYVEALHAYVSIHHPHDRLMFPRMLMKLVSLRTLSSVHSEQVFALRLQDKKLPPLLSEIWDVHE

The target of series [2] is T1, Oxysterols receptor LXR-alpha. This is another data set of the same source.
In series [3] the test system is Mus musculus. Put plainly: Decrease in plasma triglyceride level in C57BL/6J mouse after 5 days at 10 mg/kg/day relative to control. The format is functional. More on the design: scale not given: the % may be the effect or the level left.
Series [4] concerns Mus musculus. Put plainly: Increase in liver triglyceride level in C57BL/6J mouse after 5 days at 10 mg/kg/day relative to control. The format is functional.
Series [5] is described as follows: Plasma concentration in C57BL/6J mouse after 5 days at 10 mg/kg/day. The class given is ADME, organism-based.
Series [6] has as its system Mus musculus. Put plainly: Increase in plasma HDL-C level in C57BL/6J mouse after 5 days at 10 mg/kg/day relative to control. The class given is functional.
A short description of series [7]: Liver concentration in C57BL/6J mouse after 5 days at 10 mg/kg/day. The class given is ADME, organism-based. Particulars: read-out: Drug uptake.
The target of series [8] is T2, Oxysterols receptor LXR-beta (Homo sapiens, UniProt P55055).
The target in series [9] is T2, Oxysterols receptor LXR-beta. The source holds these as a separate data set.
The subject of series [10] is Mus musculus. Put plainly: Increase in plasma triglyceride level in C57BL/6J mouse after 5 days at 100 mg/kg/day relative to control. The format is functional.
Series [11] has as its system Mus musculus. The series is described as follows: Increase in liver triglyceride level in C57BL/6J mouse after 5 days at 100 mg/kg/day relative to control. The class given is functional.
A short description of series [12]: Plasma concentration in C57BL/6J mouse after 5 days at 100 mg/kg/day. The format is ADME, organism-based.
Series [13] can be described thus: Liver concentration in C57BL/6J mouse after 5 days at 100 mg/kg/day. The class given is ADME, organism-based. The note with it: read-out: Drug uptake.
Series [14] concerns Mus musculus. The series is described as follows: Increase in plasma HDL-C level in C57BL/6J mouse after 5 days at 100 mg/kg/day relative to control. The format is functional.
Series [15] has as its system Mus musculus. Put plainly: Decrease in plasma triglyceride level in C57BL/6J mouse after 5 days at 100 mg/kg/day relative to control. The format is functional. More on the design: scale not given: the % may be the effect or the level left.

Where only a bound is given, the exact number is not on record here.

T2 sequence (P55055 whole entry): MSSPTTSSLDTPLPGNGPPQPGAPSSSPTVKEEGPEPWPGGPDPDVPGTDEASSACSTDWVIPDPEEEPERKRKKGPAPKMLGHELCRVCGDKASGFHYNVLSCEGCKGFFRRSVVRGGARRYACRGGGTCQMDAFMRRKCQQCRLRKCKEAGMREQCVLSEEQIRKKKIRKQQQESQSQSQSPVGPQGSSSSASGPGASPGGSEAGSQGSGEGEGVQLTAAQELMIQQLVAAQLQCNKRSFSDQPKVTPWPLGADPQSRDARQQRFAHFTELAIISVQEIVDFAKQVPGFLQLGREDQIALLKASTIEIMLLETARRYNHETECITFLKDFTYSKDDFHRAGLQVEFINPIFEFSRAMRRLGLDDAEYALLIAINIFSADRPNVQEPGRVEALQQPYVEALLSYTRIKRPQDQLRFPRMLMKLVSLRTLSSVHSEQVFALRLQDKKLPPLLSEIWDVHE

In general, IC50 refers to the concentration at which inhibition is half-maximal. As usually defined, the EC50 is the midpoint of the concentration-response curve. Take `CCN(Cc1ccncc1)c1ccc(C(O)(C(F)(F)F)C(F)(F)F)cc1`: the IC50 in series [1] amounted to 1700 nM. This compound also yielded an EC50 in series [2] of 2100 nM.
For `CCN(Cc1ccccn1)c1ccc(C(O)(C(F)(F)F)C(F)(F)F)cc1` the same measures were 1500 nM and 700 nM.
For `OC(c1ccc(N(Cc2ccccc2)CC(F)(F)F)cc1)(C(F)(F)F)C(F)(F)F` the same measures were 70 nM and 900 nM.
With `CCN(Cc1nc(-c2cccc(C(F)(F)F)c2)oc1C)c1ccc(C(O)(C(F)(F)F)C(F)(F)F)cc1`, the Activity in the series with Mus musculus [3] is reported as 12%; in the series with Mus musculus [4], 70%; with Mus musculus [6], 35%. Also, the concentration at 120 h is 700 ng/mL in [5] and 8200 ng/g in series [7]. The IC50 in series [1] was determined as 6 nM; in series [8], 3 nM. Also, the values for the EC50 in series [2] and in series [9] were 200 nM and 60 nM, respectively.
In series [1], `CCN(Cc1cscn1)c1ccc(C(O)(C(F)(F)F)C(F)(F)F)cc1Cl` came in with an IC50 of 20 nM. In addition, it took 500 nM to reach a half-maximal effect in [2] (EC50).
With `Cc1oc(-c2cccc(C(F)(F)F)c2)nc1CN(CC(F)(F)F)c1ccc(C(O)(C(F)(F)F)C(F)(F)F)cc1`, in [1], the IC50 turned out to be 13 nM. A half-maximal response in series [2] (EC50) required 700 nM.
In the case of `CCN(Cc1nc(-c2cccc(Cl)c2)oc1C)c1ccc(C(O)(C(F)(F)F)C(F)(F)F)cc1Cl`, the IC50 in series [1] came to 2 nM. The EC50 in series [2] came out at 300 nM.
The compound `CCN(CCc1ccccc1)c1ccc(C(O)(C(F)(F)F)C(F)(F)F)cc1` displayed an IC50 in [1] of 120 nM. This compound also came in with an EC50 in series [2] of 1000 nM.
For the compound `CCN(Cc1ccccc1)c1ccc(C(O)(C(F)(F)F)C(F)(F)F)cc1Cl`, the Activity is recorded as 7% in the series with Mus musculus [10], 28% in the series with Mus musculus [11] and 23% in the series with Mus musculus [14]. Besides, the concentration at 120 h was found to be 3400 ng/mL in series [12] and 13000 ng/g in series [13]. The IC50 in [1] and in series [8] was 3 nM in each case. Besides, the figures for the EC50 in series [2] and in series [9] were 200 nM and 80 nM, respectively.
In turn, `CCN(Cc1cccnc1)c1ccc(C(O)(C(F)(F)F)C(F)(F)F)cc1` came in with an IC50 in series [1] of 2700 nM. The compound further showed an EC50 in series [2] of 4300 nM.
In [1], `CCN(Cc1nc(-c2cccc(C(F)(F)F)c2)oc1C)c1ccc(C(O)(C(F)(F)F)C(F)(F)F)cc1Cl` had an IC50 of 6 nM. This compound came in with an EC50 in [2] of 100 nM.
For `CCN(Cc1ccccc1)c1ccc(C(O)(C(F)(F)F)C(F)(F)F)cc1`, in that order: 50 nM and 1100 nM.
With `OC(c1ccc(N(Cc2ccccc2)CC(F)(F)F)c(Cl)c1)(C(F)(F)F)C(F)(F)F`, the IC50 in [1] stood at 1 nM. In addition, a half-maximal response in [2] (EC50) required 100 nM.
Turning to `CCN(Cc1cscn1)c1ccc(C(O)(C(F)(F)F)C(F)(F)F)cc1`, in series [1], the IC50 came to 600 nM. Further, the EC50 in series [2] stood at 3300 nM.
For `CCN(CCc1ccccc1)c1ccc(C(O)(C(F)(F)F)C(F)(F)F)cc1Cl`, in that order: 6 nM and 800 nM.
As for `Cc1oc(-c2cccc(Cl)c2)nc1CN(CC(F)(F)F)c1ccc(C(O)(C(F)(F)F)C(F)(F)F)cc1`, it took 30 nM to reach half-maximal inhibition in series [1] (IC50). This compound came in with an EC50 in series [2] of 1000 nM.
Compound `CCN(c1ccc(C(O)(C(F)(F)F)C(F)(F)F)cc1Cl)C(COc1ccc(CC(=O)O)cc1)c1ccccc1` (racemic) had an IC50 in [1] of 100 nM. In series [2], the EC50 worked out at 5500 nM.
For `CCN(c1ccc(C(O)(C(F)(F)F)C(F)(F)F)cc1Cl)C(COc1ccc(CCC(=O)OC)cc1)c1ccccc1` (racemic) the same measures were 100 nM and 1400 nM.
In turn, `CCN(c1ccc(C(O)(C(F)(F)F)C(F)(F)F)cc1)C(COCCO)c1ccccc1` (racemic) gave an IC50 in series [1] of 12000 nM. This compound also displayed an EC50 in [2] of over 40000 nM.
In turn, `CCN(c1ccc(C(O)(C(F)(F)F)C(F)(F)F)cc1)C(C(=O)OC)c1ccccc1` (racemic) had an IC50 in series [1] of 700 nM. This compound also had an EC50 in series [2] of 2300 nM.
`CCN(c1ccc(C(O)(C(F)(F)F)C(F)(F)F)cc1)C(C)(C(=O)N(C)C)c1ccccc1` (racemic) showed an IC50 in series [1] of 200 nM. Also, the midpoint of the response in series [2], the EC50, lay at 400 nM.
In [1], `CCN(c1ccc(C(O)(C(F)(F)F)C(F)(F)F)cc1)C(COCC(=O)N(C)C)c1ccccc1` (racemic) had an IC50 of 900 nM. Besides, the EC50 in series [2] was determined as 800 nM.
`CCN(c1ccc(C(O)(C(F)(F)F)C(F)(F)F)cc1Cl)C(COc1ccc(C(=O)OC)cc1)c1ccccc1` (racemic) gave an IC50 in series [1] of 60 nM. For the same compound, the EC50 in series [2] was determined as 700 nM.
For `CCN(c1ccc(C(O)(C(F)(F)F)C(F)(F)F)cc1)C(C(=O)NC)c1ccccc1` (racemic), in that order: 11200 nM and 10900 nM.
For `CCN(c1ccc(C(O)(C(F)(F)F)C(F)(F)F)cc1Cl)C(CC)(C(=O)OC)c1ccccc1` (racemic) the same measures were 60 nM and 500 nM.
For the compound `CCN(c1ccc(C(O)(C(F)(F)F)C(F)(F)F)cc1)C(C(=O)O)c1ccccc1` (racemic), the IC50 in series [1] is 5200 nM. Also, the response in [2] was half-maximal at 9400 nM (EC50).
In [1], `CCN(c1ccc(C(O)(C(F)(F)F)C(F)(F)F)cc1)C(COCC(=O)O)c1ccccc1` (racemic) gave an IC50 of 61000 nM. Moreover, in series [2], the EC50 is 10000 nM.
For `CCN(c1ccc(C(O)(C(F)(F)F)C(F)(F)F)cc1)C(COC)c1ccccc1` (racemic), the IC50 in series [1] came to 400 nM. Besides, in series [2], it took 900 nM to reach a half-maximal effect (EC50).
In series [1], `CCN(c1ccc(C(O)(C(F)(F)F)C(F)(F)F)cc1)C(COCc1ccccc1)c1ccccc1` (racemic) displayed an IC50 of 200 nM. The EC50 in [2] was found to be 1900 nM.
In series [1], `CCN(c1ccc(C(O)(C(F)(F)F)C(F)(F)F)cc1)C(C(=O)N(C)C)c1ccccc1` (racemic) had an IC50 of 13800 nM. Moreover, in series [2], it took 9300 nM to reach a half-maximal effect (EC50).
In the case of `CCN(c1ccc(C(O)(C(F)(F)F)C(F)(F)F)cc1)C(C)(C(=O)OC)c1ccccc1` (racemic), the Activity was 11% in the series with Mus musculus [15], 520% in the series with Mus musculus [11] and 12% in the series on Mus musculus [14]. The concentration at 120 h in series [12] is 2300 ng/mL; in [13] it was 6300 ng/g. Also, the IC50 turned out to be 50 nM in series [1] and 8 nM in [8]. Further, the EC50 in [2] was 100 nM; in series [9], 30 nM.
Compound `CCN(c1ccc(C(O)(C(F)(F)F)C(F)(F)F)cc1Cl)C(COc1ccc(CC(=O)OC)cc1)c1ccccc1` (racemic) returned an IC50 in [1] of 200 nM. Also, in series [2], the concentration giving a half-maximal response (EC50) was determined as 1100 nM.
In turn, `CCN(c1ccc(C(O)(C(F)(F)F)C(F)(F)F)cc1)C(CC)(C(=O)OC)c1ccccc1` (racemic) registered a concentration for half-maximal inhibition (IC50) in series [1] of 50 nM. The same compound returned a concentration for a half-maximal effect (EC50) in [2] of 300 nM.
With `CCN(c1ccc(C(O)(C(F)(F)F)C(F)(F)F)cc1Cl)C(COc1ccc(CCC(=O)O)cc1)c1ccccc1` (racemic), the IC50 in series [1] is 60 nM. The compound further came in with an EC50 in [2] of 4500 nM.
Turning to `COC(=O)C1(c2ccccc2)CCCCN1c1ccc(C(O)(C(F)(F)F)C(F)(F)F)cc1` (racemic), the midpoint of inhibition in series [1], the IC50, lay at 60 nM. In series [2], this compound showed an EC50 of 90 nM.
For `COC(=O)C1(c2ccccc2)CCCN1c1ccc(C(O)(C(F)(F)F)C(F)(F)F)cc1` (racemic), in series [1], the IC50 was found to be 50 nM. This compound gave an EC50 in series [2] of 200 nM.
As for `CCN(c1ccc(C(O)(C(F)(F)F)C(F)(F)F)cc1)C(COCC(=O)OC)c1ccccc1` (racemic), it took 600 nM to reach half-maximal inhibition in series [1] (IC50). Moreover, the midpoint of the response in series [2], the EC50, lay at 2200 nM.
Regarding `CCN(c1ccc(C(O)(C(F)(F)F)C(F)(F)F)cc1)C(C(=O)N1CCOCC1)c1ccccc1` (racemic), inhibition in series [1] was half-maximal at 5400 nM (IC50). In series [2], this compound registered an EC50 of 8500 nM.
Turning to `CCN(c1ccc(C(O)(C(F)(F)F)C(F)(F)F)cc1)C(COCC(=O)NC)c1ccccc1` (racemic), the IC50 in series [1] was 18000 nM. In series [2], this compound came in with an EC50 of over 40000 nM.
For `CCN(c1ccc(C(O)(C(F)(F)F)C(F)(F)F)cc1Cl)C(COc1ccc(C(=O)O)cc1)c1ccccc1` (racemic) the same measures were 100 nM and 3700 nM.
